Values of other authors as cited in PMC11590026, “Synthesis, enzyme inhibition, and docking studies of new schiff bases of disalicylic acid methylene-based derivatives as dual-target antibacterial agents” (Frontiers in Chemistry, 2024).
Converted amounts (≈) assume the structure as drawn.

Assays:
E. coli = system: E. coli; design: method as in Al-Wahaibi et al., 2024; details: ref Al-Wahaibi et al., 2024; cited from earlier work
S. aureus = system: S. aureus; design: method as in Al-Wahaibi et al., 2024; details: ref Al-Wahaibi et al., 2024; cited from earlier work
B. subtilis = system: B. subtilis; design: method as in Al-Wahaibi et al., 2024; details: ref Al-Wahaibi et al., 2024; cited from earlier work
Topoisomerase IV = details: earlier work; ref Al-Wahaibi et al., 2024; cited from earlier work
P. aeruginosa = system: P. aeruginosa; design: method as in Al-Wahaibi et al., 2024; details: ref Al-Wahaibi et al., 2024; cited from earlier work
[1] = target: S. aureus topoisomerase IV; details: internal standard value stated in the supplementary method; cited from earlier work

SMILES | MIC (E. coli) | MIC (S. aureus) | MIC (B. subtilis) | Times less potent/effective than ciprofloxacin (MIC) (B. subtilis) | IC50 (Topoisomerase IV) | MIC (P. aeruginosa) | IC50 [1]
COc1ccccc1/C=N/NC(=O)c1cc(Cc2ccc(O)c(C(=O)N/N=C/c3ccccc3OC)c2)ccc1O [Compound 5h] | 0.065 µg/mL (≈ 0.118 µM) | 0.030 µg/mL (≈ 0.0543 µM) | 0.050 µg/mL (≈ 0.0905 µM) | five times less potent than ciprofloxacin | 3.5 µM | 0.060 µg/mL (≈ 0.109 µM) | –
CN(C)c1ccc(/C=N/NC(=O)c2cc(Cc3ccc(O)c(C(=O)N/N=C/c4ccc(N(C)C)cc4)c3)ccc2O)cc1 [Compound 5i] | – | – | – | 7 times | 5.8 µM | – | –
CO[C@@H]1[C@@H](OC(N)=O)[C@@H](O)[C@H](Oc2ccc3c(O)c(NC(=O)c4ccc(O)c(CC=C(C)C)c4)c(=O)oc3c2C)OC1(C)C [Novobiocin] | – | – | – | – | – | – | 26.7 µM
